Reference: patent publication US20250057928A1, “VACCINE COMPOSITION FOR INDUCING ANTI-IL-23 ANTIBODY” (OSAKA UNIVERSITY, priority 2021, published 2025)
Where no end group is shown, it is not given here.

Assays:
[1] = test system: IL-17 production in rhIL-23 stimulated mouse splenocyte; assay: Neutralization activity of mouse antiserum: IL-17 production in rhIL-23 stimulated mouse splenocyte; assay type: cell-based; details: antiserum final 15-fold, rhIL-23 10 ng/ml, 3 days culture; IL-17A/F ELISA
Experimental: (§1) AJP001 conjugated peptide (SEQ ID NOs: 6-37) was dissolved in physiological saline, mixed with an equal amount of 2% Alhydrogel (invivogen), and this was intradermally administered to BALB/c mice (female, 6-week-old, N=5-6) at 0.5 mg/body 3 times at two-week intervals. Blood was collected before administration and at the time point of 6 weeks after initial administration, and the antibody titer (GMT) to each epitope sequence and binding ability to recombinant human IL-23 protein (rhIL-23) (Peprotech) were measured by the ELISA method (same method as in Example 1). The binding to rhIL-23 was evaluated by a binding ratio to normal serum by calculating the ratio of the absorbance of a well added with normal mouse serum to the absorbance of a well added with antiserum derived from a mouse administered with each AJP001 conjugated peptide (SEQ ID NOs: 6-37). In addition, the neutralization activity of mouse antiserum was evaluated using an action on IL-17 production in rhIL-23 stimulated mouse splenocyte as an index. The spleen of normal BALB/c mouse (female, 5-week-old, N=3) was triturated using a syringe barrel and a cell strainer and washed with and suspended in HBSS (−). Erythrocytes were then removed using ACK Buffer (Thermo fisher scientific), and splenocytes were isolated. The splenocytes were prepared to 2.5×10^6 cells/mL with 10% FBS/1% penicillin/streptomycin/4 ng/mL rmIL-2-containing RPMI1640 medium (culture medium), and seeded in a 96 well plate at 100 μl/well. The antiserum (final concentration 15-fold) of the mice administered with each AJP001 conjugated peptide and rhIL-23 (final concentration 10 ng/ml) were added to the culture medium, reacted at 37° C. for 2 hr, added at 100 μL/well to a 96-well plate seeded with splenocytes, and cultured for 3 days in a 37° C./5% CO2 incubator. An untreated well and a control well to which normal mouse serum and rhIL-23 were added were provided. IL-17A/F in the culture supernatant was measured using Mouse IL-17A/F ELISA kit (R&D systems), the proportion (%) of IL-17 to normal serum was calculated from the IL-17 concentrations of untreated well (A), control well (B), and well (C) to which antiserum of the mice administered with each AJP001 conjugated peptide was added and according to the following formula, and the neutralization activity was evaluated.
Percentage of IL-17 to normal serum (%)=100×(C−A/B−A)

[2] = test system: recombinant human IL-23 protein (rhIL-23); assay: Binding of mouse antiserum to rhIL-23, ELISA; details: rhIL-23 ELISA; antiserum of BALB/c mice 6 weeks after initial administration, 0.5 mg/body with Alhydrogel
Experimental: as §1
AJP001 conjugated peptide (SEQ ID NO: 6) was dissolved in physiological saline and intradermally administered to BALB/c mice (female, 6-week-old, N=6) at 1 mg/body 3 times at two-week intervals, and blood was collected every 2 weeks until 8 weeks. The antibody titer (GMT) of all the collected sera and the binding ability to rhIL-23 of the serum at 6 weeks were measured by the ELISA method. In FIG. 5, “*” means P<0.05.

epitope peptide = assay: Antibody titer (GMT) of serum of mice administered AJP001 conjugated peptide, ELISA; assay type: in vivo, mouse; details: BALB/c mice, 0.5 mg/body intradermal with equal amount of 2% Alhydrogel, 3 times at two-week intervals; serum 6 weeks after initial administration; titer to each epitope sequence
Experimental: AJP001 conjugated peptide having one of the B cell epitope sequences of SEQ ID NOs: 1-5 was dissolved in physiological saline and intradermally administered twice to BALB/c mice (female, 6-week-old, N=5-6) at 0.5 mg/body at 2-week intervals. Blood was collected before administration and 5 weeks after the initial administration, and the antibody titer against each AJP001 conjugated peptide and the binding ability to recombinant mouse IL-23 protein (rmIL-23) were measured by the ELISA method. Specifically, a 96-well plate immobilized with an epitope peptide dissolved at 10 μg/mL in carbonate buffer was blocked with 5% skim milk/PBS, and then serum serially diluted with 5% skim milk/PBS was added, and the mixture was left standing at 4° C. overnight. After washing the wells with PBS-T, HRP-labeled anti-mouse IgG antibody (GE Healthcare) diluted with 5% skim milk/PBS was added and the mixture was shaken at room temperature for 3 hr. After washing the wells with PBS-T, TMB solution (SIGMA) was added, the wells were allowed to stand for 30 min in the dark, the reaction was stopped by adding 0.5M H2SO4, and the absorbance at 450 nm was measured using a plate reader. The serum dilution rate that gave 1/2 (OD=1.75) of the maximum absorbance was defined as the antibody titer, and the geometric mean titer: GMT was calculated from the individual values. Binding to IL-23 protein was measured by the ELISA method in the same manner as the antibody titer, using rmIL-23 (Antibodies-online GmbH) as the solid-phased antigen and goat serum for blocking.
AJP001 conjugated peptide (SEQ ID NO: 2) was dissolved in physiological saline and intradermally administered to BALB/c mice (female, 6-week-old, N=6) at 1 mg/body 3 times at two-week intervals, and blood was collected every 2 weeks until 8 weeks. The antibody titer (GMT) of all the collected sera and the binding ability to rmIL-23 of the serum at the time point of 6 weeks were measured by the ELISA method (same method as in Example 1). The antibody titer and the binding of the induced antibody to rmIL-23 at each time point are shown in FIGS. 2 (a) and (b), respectively.
as §1, with “An untreated well and a control well to which normal mouse serum and rhIL-23 were added were provided. IL-17A/F in the culture supernatant was measured using Mouse IL-17A/F ELISA kit (R&D systems), the proportion (%) of IL-17 to normal serum was calculated from the IL-17 concentrations of untreated well (A), control well (B), and well (C) to which antiserum of the mice administered with each AJP001 conjugated peptide was added and according to the following formula, and the neutralization activity was evaluated.” left out

Row | Substance | binding to IL-23 (binding ratio to normal serum) [2] | neutralization activity (percentage of IL-17 to normal serum (%)) [1] [%] | antibody titer (GMT) (epitope peptide)
1 | 14 (SPSQPWQA; not fully specified (N-terminus)) [compound 14] | 1.23 | 8.0 | 3331
2 | 16 (QWQRPWQR; not fully specified (N-terminus)) [compound 16] | 1.09 | 3.6 | 201
3 | 7 (APSQPWQR; not fully specified (N-terminus)) [compound 7] | 1.40 | 4.2 | 5417
4 | 8 (SASQPWQR; not fully specified (N-terminus)) [compound 8] | 1.37 | 1.4 | 3485
5 | 20 (SPSQTWQR; not fully specified (N-terminus)) [compound 20] | 1.23 | 5.8 | 36347
6 | 18 (STSQPWQR; not fully specified (N-terminus)) [compound 18] | 1.21 | 0.0 | 8211
7 | 13 (SPSQPWAR; not fully specified (N-terminus)) [compound 13] | 1.11 | 4.8 | 3215
8 | 15 (PWQRPWQR; not fully specified (N-terminus)) [compound 15] | 1.16 | 10 | 458
9 | 22 (SSSQTWQR; not fully specified (N-terminus)) [compound 22] | 1.35 | 8.5 | 2160
10 | 17 (SSSQPWQR; not fully specified (N-terminus)) [compound 17] | 1.26 | 1.6 | 6096
11 | 19 (SPSQSWQR; not fully specified (N-terminus)) [compound 19] | 1.33 | 2.4 | 18311
12 | 12 (SPSQPAQR; not fully specified (N-terminus)) [compound 12] | 1.12 | 3.1 | 48594
13 | 23 (STSQSWQR; not fully specified (N-terminus)) [compound 23] | 1.33 | 9.4 | 31720
14 | 10 (SPSAPWQR; not fully specified (N-terminus)) [compound 10] | 1.03 | 0.0 | 19795
15 | 9 (SPAQPWQR; not fully specified (N-terminus)) [compound 9] | 1.01 | 4.0 | 4683

The next lines start with results.

Row | binding to IL-23 (binding ratio to normal serum) [2] | Substance | neutralization activity (percentage of IL-17 to normal serum (%)) [1] [%] | antibody titer (GMT) (epitope peptide)
16 | 1.66 | 25 (SPSQQWQR; not fully specified (N-terminus)) [compound 25] | 2.1 | 285265
17 | 1.00 | 33 (QPWQR; not fully specified (N-terminus); listed as Homo sapiens) [compound 33] | 72.6 | 16458
18 | 1.2 | 30 (KKSQPWQR; not fully specified (N-terminus)) [compound 30] | 68.9 | 6917
19 | 1.13 | 28 (SKSQPWQR; not fully specified (N-terminus)) [compound 28] | 42.2 | 4324
20 | 1.30 | 35 (SQPWQRK; not fully specified (N-terminus); listed as Homo sapiens) [compound 35] | 32.5 | 92
21 | 1.11 | 29 (SPKQPWQR; not fully specified (N-terminus)) [compound 29] | 63.9 | 9056
22 | 0.99 | 31 (PSQPWQR; not fully specified (N-terminus); listed as Homo sapiens) [compound 31] | 63.4 | 12417
23 | 1.20 | 24 (STSQTWQR; not fully specified (N-terminus)) [compound 24] | 0.0 | 126353
